Laboratory results reported in patent publication US9169241B2, “Quinolinyloxyphenylsulfonamides” (Max-Planck-Gesellschaft Zur Forderung der Wissenschaften …, priority 2009, dated 2015).
Like-named read-outs stand apart in the source and are kept apart here.

Tests used:
Type in all cases: cell-based
viable cells in culture = assay: Cell viability assay at 10 μM (CellTiter-Glo, Table VII); settings: compound 10 μM, 72 h;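 further: graded A 0-20%; B 21-40%; C 41-60%; D over 60% viable cells relative to DMSO control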
In short: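 Cells were seeded at 1000 cells/well in 96-well plates in 100 μl culture medium and incubated for 72 h with 10 μM compound or a DMSO control. ATP content, which reflects metabolically active and therefore viable cells, was then determined by CellTiter-Glo luminescence (Promega) per the manufacturer's instructions and expressed relative to the DMSO control.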

U138 [1] = assay: Cell vitality assay (ATP assay, CellTiter-Glo); settings: U138, 72 h; Table IIa; read-out: IC50 ATP-Assay after 72 h U138
In short: (§1)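 Luminescent ATP read-out of viable cells; IC50 = concentration at which ATP falls to 50% of DMSO control. Cells seeded at 1000/well, treated 72 h with seven concentrations from 0.195 to 12.5 μM.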

SF763 [2] = assay: Cell vitality assay (ATP assay, CellTiter-Glo); settings: SF763, 72 h; Table IIa; read-out: IC50 ATP-Assay after 72 h SF763
In short: as §1

MDA-MB231 = assay: Cell vitality assay (ATP assay, CellTiter-Glo); settings: Homo sapiens, MDA-MB-231; MDA-MB231, 72 h; Table IIa; read-out: IC50 ATP-Assay after 72 h MDA-MB231
In short: as §1

C8161 [3] = assay: Cell vitality assay (ATP assay, CellTiter-Glo); settings: Homo sapiens; C8161, 72 h; Table IIa; read-out: IC50 ATP-Assay after 72 h C8161
In short: as §1

U138 [4] = assay: Apoptosis assay (Cellomics, nucleus condensation); settings: Table III, read-out: Apoptosis induction in U138
In short: (§2)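 Readout: per-nucleus Hoechst 33342 fluorescence intensity and its population variation, plus number of detected cells, by automated CCD imaging. Live cells, 5000/well; compound 0.39–12.5 μM (twofold series) vs DMSO, read at 24 h and 48 h.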

SF763 [5] = assay: Apoptosis assay (Cellomics, nucleus condensation); settings: Table III, read-out: Apoptosis induction in SF763
In short: as §2

U118 = assay: Apoptosis assay (Cellomics, nucleus condensation); settings: Table III, read-out: Apoptosis induction in U118
In short: as §2

Hs578T = assay: Apoptosis assay (Cellomics, nucleus condensation); settings: Homo sapiens, Hs-578T, Table III, read-out: Apoptosis induction in Hs578T
In short: as §2

C8161 [6] = assay: Apoptosis assay (Cellomics, nucleus condensation); settings: Homo sapiens, Table III, read-out: Apoptosis induction in C8161
In short: as §2

SF126 = assay: Apoptosis assay (Cellomics, nucleus condensation); settings: Homo sapiens, SF-126, Table III, read-out: Apoptosis induction in SF126
In short: as §2

cells = assay: Boyden chamber migration assay (Table VI); settings: Homo sapiens, Hs-578T, 16 h, Hs578T cells; 16 h migration
In short: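 Migration read-out is a count of fixed cells on the underside of an […] insert membrane after 16 h. Chemoattractant was medium with 10% FCS in the lower chamber; 20000 cells started in serum-free medium with 0.1% BSA above, and those left on top were removed by swab.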

[7] = Homo sapiens, HCT-116, HCT116 def, read-out: percentage (%) of viable cells HCT 116def
[8] = Homo sapiens, HCT-116, HCT116 wt, read-out: percentage (%) of viable cells HCT 116wt
[9] = Homo sapiens, HT-29, HT29, read-out: percentage (%) of viable cells HT29
[10] = Homo sapiens, NCI-H358, H358, read-out: percentage (%) of viable cells H358
[11] = Homo sapiens, NCI-H1650, H1650, read-out: percentage (%) of viable cells H1650
[12] = Homo sapiens, NCI-H1666, H1666, read-out: percentage (%) of viable cells H1666
[13] = Homo sapiens, NCI-H1975, H1975, read-out: percentage (%) of viable cells H1975
[14] = Homo sapiens, NCI-H1993, H1993, read-out: percentage (%) of viable cells H1993
[15] = Homo sapiens, A549, read-out: percentage (%) of viable cells A549
[16] = Homo sapiens, HCC827, read-out: percentage (%) of viable cells HCC827
[17] = Homo sapiens, SW480, read-out: percentage (%) of viable cells SW480
[18] = RKO, read-out: percentage (%) of viable cells RKO

SMILES | viability at 10 µM (viable cells in culture; [7]) [%] | viability at 10 µM (viable cells in culture; [8]) [%] | viability at 10 µM (viable cells in culture; [9]) [%] | viability at 10 µM (viable cells in culture; [10]) [%] | viability at 10 µM (viable cells in culture; [11]) [%] | viability at 10 µM (viable cells in culture; [12]) [%] | viability at 10 µM (viable cells in culture; [13]) [%] | viability at 10 µM (viable cells in culture; [14]) [%] | viability at 10 µM (viable cells in culture; [15]) [%] | IC50 (U138 [1]) [µM] | IC50 (SF763 [2]) [µM] | IC50 (MDA-MB231) [µM] | IC50 (C8161 [3]) [µM] | IC50 (U138 [4]) [µM] | IC50 (SF763 [5]) [µM] | IC50 (U118) [µM] | IC50 (Hs578T) [µM] | IC50 (C8161 [6]) [µM] | IC50 (SF126) [µM] | IC50 (cells) [µM] | other results
COc1cc2c(Oc3ccc(NS(=O)(=O)c4cccc(Oc5ccccc5)c4)cc3F)ccnc2cc1OCCCN1CCN(C)CC1 [Example 14, N-(3-Fluoro-4-{6-methoxy-7-[3-(4-methyl-piperazin-1-yl)-propoxy]-quinolin-4-yloxy}-phenyl)-3-phenoxy-benzenesulfonamide] | 21 to 40 | 0 to 20 | 0 to 20 | 21 to 40 | 21 to 40 | 41 to 60 | 21 to 40 | 0 to 20 | 41 to 60 | 12.5 to 50 | ≤ 12.5 | ≤ 12.5 | ≤ 12.5 | ≤ 12.5 | ≤ 12.5 | 12.5 to 50 | ≤ 12.5 | ≤ 12.5 | ≤ 12.5 | ≤ 5 | viability at 10 µM (viable cells in culture; [16]): 21 to 40%; viability at 10 µM (viable cells in culture; [17]): 0 to 20%; viability at 10 µM (viable cells in culture; [18]): 0 to 20%
COc1cc2c(Oc3ccc(NS(=O)(=O)c4ccccc4OC(F)(F)F)cc3F)ccnc2cc1OCCCN1CCN(C)CC1 [Example 25, N-(3-Fluoro-4-{6-methoxy-7-[3-(4-methyl-piperazin-1-yl)-propoxy]-quinolin-4-yloxy}-phenyl)-2-trifluoromethoxy-benzenesulfonamide] |  |  |  |  |  |  |  |  |  | ≤ 12.5 | ≤ 12.5 | ≤ 12.5 | ≤ 12.5 | ≤ 12.5 | ≤ 12.5 | ≤ 12.5 | ≤ 12.5 | ≤ 12.5 | ≤ 12.5 | ≤ 5 | 
COc1cc2c(Oc3ccc(NS(=O)(=O)c4c(Cl)cccc4Cl)cc3F)ccnc2cc1OCCCN1CCN(C)CC1 [Example 32, 2,6-Dichloro-N-(3-fluoro-4-{6-methoxy-7-[3-(4-methyl-piperazin-1-yl)-propoxy]-quinolin-4-yloxy}-phenyl)-benzenesulfonamide] | 21 to 40 | 0 to 20 | 0 to 20 | 0 to 20 | 21 to 40 | 41 to 60 | 21 to 40 | 0 to 20 | 41 to 60 | ≤ 12.5 | ≤ 12.5 | ≤ 12.5 | ≤ 12.5 | ≤ 12.5 | ≤ 12.5 | ≤ 12.5 | ≤ 12.5 | ≤ 12.5 | ≤ 12.5 | ≤ 5 | viability at 10 µM (viable cells in culture; [16]): 41 to 60%; viability at 10 µM (viable cells in culture; [17]): 21 to 40%; viability at 10 µM (viable cells in culture; [18]): 21 to 40%
COc1cc2c(Oc3ccc(NS(=O)(=O)c4ccccc4OC)cc3F)ccnc2cc1OCCCN1CCN(C)CC1 [Example 33, N-(3-Fluoro-4-{6-methoxy-7-[3-(4-methyl-piperazin-1-yl)-propoxy]-quinolin-4-yloxy}-phenyl)-2-methoxy-benzenesulfonamide] | 21 to 40 | 0 to 20 | 0 to 20 | 21 to 40 | > 60 | 21 to 40 | 21 to 40 | 0 to 20 | 41 to 60 | ≤ 12.5 | ≤ 12.5 | ≤ 12.5 | ≤ 12.5 | ≤ 12.5 | ≤ 12.5 | 12.5 to 50 | 12.5 to 50 | ≤ 12.5 | ≤ 12.5 | ≤ 5 | viability at 10 µM (viable cells in culture; [16]): 21 to 40%; viability at 10 µM (viable cells in culture; [17]): 0 to 20%; viability at 10 µM (viable cells in culture; [18]): 0 to 20%
COc1cc2c(Oc3ccc(NS(=O)(=O)c4cccc(C#N)c4)cc3F)ccnc2cc1OCCCN1CCCC(C)C1 (stereo not drawn) [Example 41, 3-Cyano-N-(3-fluoro-4-{6-methoxy-7-[3-(3-methyl-piperidin-1-yl)-propoxy]-quinolin-4-yloxy}-phenyl)-benzenesulfonamide] | 0 to 20 | 41 to 60 | 21 to 40 | 0 to 20 | 41 to 60 | 21 to 40 | 0 to 20 | 21 to 40 | 21 to 40 | ≤ 12.5 | ≤ 12.5 | ≤ 12.5 | ≤ 12.5 | ≤ 12.5 | ≤ 12.5 | ≤ 12.5 | ≤ 12.5 | ≤ 12.5 | ≤ 12.5 | ≤ 5 | viability at 10 µM (viable cells in culture; [16]): 41 to 60%; viability at 10 µM (viable cells in culture; [17]): 0 to 20%; viability at 10 µM (viable cells in culture; [18]): 0 to 20%
COc1cc2c(Oc3ccc(NS(=O)(=O)c4cc(C)ccc4F)cc3F)ccnc2cc1OCCCN1CCCC(C)C1 (stereo not drawn) [Example 55] | 21 to 40 | 0 to 20 | 21 to 40 | 0 to 20 | 0 to 20 | 0 to 20 | > 60 | 0 to 20 | 21 to 40 | 12.5 to 50 | 12.5 to 50 | ≤ 12.5 | ≤ 12.5 | ≤ 12.5 | ≤ 12.5 | 12.5 to 50 | ≤ 12.5 | ≤ 12.5 | ≤ 12.5 | ≤ 5 | viability at 10 µM (viable cells in culture; [16]): 41 to 60%; viability at 10 µM (viable cells in culture; [17]): 21 to 40%; viability at 10 µM (viable cells in culture; [18]): 41 to 60%
